The source of these data is patent US6774235B2, “Trisubstituted 1,3,5-triazine derivatives” (Janssen Pharmaceutica N.V., priority 1998, dated 2004).

The nature of data set [1]: Cytotoxicity in mock-infected MT-4 cells (MTT). The settings on record: human, mock-infected MT-4 cells. As to the method: (§1) A rapid, sensitive and automated assay procedure was used for the in vitro evaluation of anti-HIV agents. An HIV-1 (wildtype IIIB) transformed T4-cell line, MT-4, which was previously shown (Koyanagi et al., Int. J Cancer, 36, 445-451, 1985) to be highly susceptible to and permissive for HIV infection, served as the target cell line. Inhibition of the HIV-induced cytopathic effect was used as the end point. […] The percent protection achieved by the compound in HIV-infected cells was calculated by the following formula: [formula]
(§2) whereby (ODT)HIV is the optical density measured with a given concentration of the test compound in HIV-infected cells; (ODC)HIV is the optical density measured for the control untreated HIV-infected cells; (ODC)MOCK is the optical density measured for the control untreated mock-infected cells; all optical density values were determined at 540 nm. […] The ratio of CC50 to IC50 was defined as the selectivity index (SI).

The next data set has as its system HIV-1 (wildtype IIIB). In words: microbe, parasite or virus in culture. The data set is classed as cell-based. The settings on record: Human immunodeficiency virus 1, MT4; dose achieving 50% protection of HIV-1 (IIIB) infected MT-4 cells, MTT, OD 540 nm. As to the method:
as §1, §2

With `CC(C)c1cc(Br)c(Nc2nc(N)nc(Nc3ccc(C#N)cc3)n2)c(Br)c1` [Compound 77, 4-[[4-amino-6-[[2,6-dibromo-4-(1-methylethyl)phenyl]amino]-1,3,5-triazin-2-yl]-amino]benzonitrile], the CC50 in data set [1] turned out to be 47000 nM. The compound further showed a half-maximal inhibitory concentration (IC50) in the data set on HIV-1 (wildtype IIIB) of 3 nM.
In data set [1], `Cc1cc(C)c(Nc2nc(N)nc(Nc3ccc(C#N)cc3)n2)c(Cl)c1` [Compound 65, 4-[[4-amino-6-[(2-chloro-4,6-dimethylphenyl)amino]-1,3,5-triazin-2-yl]amino]-benzonitrile] gave a CC50 of 48500 nM. Besides, the IC50 with HIV-1 (wildtype IIIB) is 1 nM.
Compound `CC(=O)c1cc(C)c2c(c1Oc1nc(N)nc(Nc3ccc(C#N)cc3)n1)CCC2` [Compound 84, 4-[[4-[(5-acetyl-2,3-dihydro-7-methyl-1H-inden-4-yl)oxy]-6-amino-1,3,5-triazin-2-yl]amino]benzonitrile] displayed a CC50 in data set [1] of 54100 nM. Moreover, inhibition in the data set on HIV-1 (wildtype IIIB) was half-maximal at 1 nM (IC50).
Turning to `N#Cc1ccc(Nc2nc(N)nc(Oc3cccc4[nH]ccc34)n2)cc1` [Compound 83], half-maximal cytotoxicity in data set [1] (CC50) was put at 59600 nM. Moreover, the IC50 with HIV-1 (wildtype IIIB) was determined as 473 nM.
In data set [1], `Cc1cc(C)c(Nc2nc(NO)nc(Nc3ccc(C#N)cc3)n2)c(C)c1` [Compound 11, 4-[[4-(hydroxyamino)-6-[(2,4,6-trimethylphenyl)amino]-1,3,5-triazin-2-yl]amino]-benzonitrile] registered a CC50 of 6300 nM. The same compound registered an IC50 in the data set with HIV-1 (wildtype IIIB) of 1 nM.
For `Cc1ccc(C)c(Oc2nc(N)nc(Nc3ccc(C#N)cc3)n2)c1` [Compound 2, 4-[[4-amino-6-(2,5-dimethylphenoxy)-1,3,5-triazin-2-yl]amino]benzonitrile] the same measures were 34900 nM and 3 nM.
On to `Cc1cc(Br)cc(Cl)c1Nc1nc(N)nc(Nc2ccc(C#N)cc2)n1` [Compound 63, 4-[[4-amino-6-[(4-bromo-2-chloro-6-methylphenyl)amino]-1,3,5-triazin-2-yl]amino]-benzonitrile], for which the half-maximal cytotoxic concentration (CC50) in data set [1] is 48000 nM. Also, the IC50 in the data set on HIV-1 (wildtype IIIB) worked out at 3 nM.
`N#Cc1ccc(Nc2nc(N)nc(Sc3ccc(Cl)cc3Cl)n2)cc1` [Compound 54, 4-[[4-amino-6-[(2,4-dichlorophenyl)thio]-1,3,5-triazin-2-yl]amino]benzonitrile] had a CC50 in data set [1] of 57300 nM. Also, the IC50 with HIV-1 (wildtype IIIB) stood at 4 nM.
`Cc1cc([N+](=O)[O-])cc(C)c1Oc1nc(N)nc(Nc2ccc(C#N)cc2)n1` [Compound 41, 4-[[4-amino-6-(4-nitro-2,6-dimethylphenoxy)-1,3,5-triazin-2-yl]amino]benzonitrile]: half-maximal cytotoxicity in data set [1] (CC50) was put at 12200 nM. This compound showed an IC50 with HIV-1 (wildtype IIIB) of 2 nM.
For `N#Cc1ccc(Nc2nc(N)nc(Oc3c(Br)cc(Br)cc3Br)n2)cc1` [Compound 40, 4-[[4-amino-6-(2,4,6-tribromophenoxy)-1,3,5-triazin-2-yl]amino]benzonitrile], in data set [1], the CC50 is > 10000 nM. For the same compound, the IC50 in the data set with HIV-1 (wildtype IIIB) stood at 5 nM.
In data set [1], `CCc1cccc(C)c1Nc1nc(N)nc(Nc2ccc(C#N)cc2)n1` [Compound 16, 4-[[4-amino-6-[(2-ethyl-6-methylphenyl)amino]-1,3,5-triazin-2-yl]amino]benzonitrile] showed a CC50 of 8100 nM. For the same compound, inhibition with HIV-1 (wildtype IIIB) was half-maximal at 6 nM (IC50).
`Cc1cccc(Cl)c1Nc1nc(N)nc(Nc2ccc(C#N)cc2)n1` [Compound 7, 4-[[4-amino-6-[(2-chloro-6-methylphenyl)amino]-1,3,5-triazin-2-yl]amino]benzonitrile] yielded a CC50 in data set [1] of 49900 nM. In addition, the half-inhibitory concentration (IC50) in the data set with HIV-1 (wildtype IIIB) is 5 nM.
On to `Cc1cc(Br)cc(Cl)c1Oc1nc(N)nc(Nc2ccc(C#N)cc2)n1` [Compound 33, 4-[[4-amino-6-(4-bromo-2-chloro-6-methylphenoxy)-1,3,5-triazin-2-yl]amino]benzonitrile], for which the CC50 in data set [1] is > 10000 nM. The half-inhibitory concentration (IC50) in the data set with HIV-1 (wildtype IIIB) turned out to be 2 nM.
Taken in the same sequence, the figures for `N#Cc1ccc(Nc2nc(N)nc(Nc3c(Cl)cc(Cl)cc3C(F)(F)F)n2)cc1` [Compound 71, 4-[[4-amino-6-[[2,4-dichloro-6-(trifluoromethyl)phenyl]amino]-1,3,5-triazin-2-yl]-amino]benzonitrile] were 8200 nM and 10 nM.
As to `CC(=O)c1cc(C)c(Oc2nc(N)nc(Nc3ccc(C#N)cc3)n2)c(C)c1` [Compound 35, 4-[[4-(4-acetyl-2,6-dimethylphenoxy)-6-amino-1,3,5-triazin-2-yl]amino]benzonitrile], the cytotoxic concentration (CC50) in data set [1] stood at 32100 nM. This compound showed a half-maximal inhibitory concentration (IC50) in the data set with HIV-1 (wildtype IIIB) of 1 nM.
Taken in the same sequence, the figures for `N#Cc1ccc(Nc2nc(N)nc(Sc3c(Cl)cccc3Cl)n2)cc1` [Compound 19, 4-[[4-amino-6-[(2,6-dichlorophenyl)thio]-1,3,5-triazin-2-yl]amino]benzonitrile] were 40600 nM and 4 nM.

Broadly, the CC50 is the concentration that lowers cell viability or growth by half. A low value points to harm at low concentration. For orientation: IC50 means the point on the concentration scale where inhibition reaches its midpoint. A low value points to greater potency in that assay.
